# Source: EP2667887B1, “PHARMACEUTICAL COMPOSITION COMPRISING THE PEPTIDE GLU-ASP-GLY AND USE FOR TREATING HELICOBACTER PYLORI INDUCED GASTRODUODENAL DISEASES” («Garmonia», Ltd., priority 2011, dated 2012)
# Experiments:
# [1] = Subacute toxicity study, 90 days; type: in vivo, white mongrel male rats; details: rats, daily for 90 days, 1 µg/kg, 0,1 mg/kg, doses exceed the therapeutic one by 100-1000 times
# Procedure: General toxicity of peptide H-Glu-Asp-Gly-OH was studied in accordance with the requirements of "Manual for Experimental (Pre-Clinical) Study of New Pharmacological Substances" (2000): acute toxicity in case of a single administration of the preparation, as well as subacute and chronic toxicity in case of a long-term administration of the peptide.
# Subacute toxicity study was carried out on 64 white mongrel male rats with body weight 180-220 g. Experimental animals received the preparation daily, once a day for 90 days in the doses of 1 µg/kg, 0,1 mg/kg, 1 mg/kg in 0,5 ml of sterile 0,9% NaCl solution. Control animals were treated with sterile 0,9% NaCl solution in the same volume. Before the administration of the preparation, as well as on the 30th, 60th and 90th day after the beginning of the administration of the preparation peripheral blood morphology and properties were studied in the animals. Upon completion of the experiment biochemical and coagulology indices of the blood were evaluated.
# [2] = test system: constitutive and inducible NO synthase (cNO and iNO respectively), HSP70, and NF-kappa b-p65 factor; assay: Western blot of signal molecules from ulcer edge in the rat gastric ulcer model with Helicobacter pylori; type: in vivo, Sprague Dawley rats; details: 7th day from ulcer induction; doses of 1 µg to 10 µg per kg of body weight daily for 5 days
# Procedure: The study was carried out on 90 male Sprague Dawley rats (180-220 g) randomly subdivided into 9 groups (10 animals per group): • Group 1 - intact rats (saline solution) • Group 2 - modeled ulcer + saline solution • Group 3 (6 subgroups) - modeled ulcer + H-Glu-Asp-Gly-OH • Group 4 - modeled ulcer + Klacid antibiotic
# Ulcer was modeled by three-time administration (in 4 hours) in the rat stomach of cysteamine-HCL (Aldrich, Milwannee, WI) by means of a probe in the dose of 25 mg per 100 g of body weight. The ulcer, approximately 28 mm^2 in size, appeared at the boundary between antral and fundal segments of the stomach 12 hours after the last administration. Simultaneously with the first administration of cysteamine-HCL a Helicobacter pylori culture (Curtin Matheson Scientific Inc, strain Cag J117, 100 microbial cells) was administered in the rat stomach through the same probe.
# A means on the basis of the pharmaceutical composition comprising the studied peptide H-Glu-Asp-Gly-OH was administered subcutaneously in the dose of 1 µg per kg of animal body weight (group 3a), 2,5 µg per kg of body weight (group 3b) and 10 µg per kg of body weight (group 3c) in 0,5 ml of saline solution daily, for 5 days from the occurrence of the stomach ulcer. […]
substance,measurement,setting,value
glutamyl-aspartyl-glycine [H-Glu-Asp-Gly-OH],subacute toxicity,[1],no side effects
same,"level of production of signal molecules (both NO synthase forms, HSP70, NF kappa b-p65) in the mucous membrane of the edge of the ulcer",[2],comparable with commonly normal indices
